# Measured values reported in PubChem BioAssay (NCI).
#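 Following 48 hours of exposure in 96-well plates, responses at five concentrations were used to interpolate endpoints linearly. TGI: total growth inhibition.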
# Assays:
# Assay in all cases: NCI tumour cell line growth inhibition, 48 h
# 786-0 renal = tested on: 786-0 renal
# SN12C renal = tested on: SN12C renal
# EKVX NSCLC = tested on: EKVX NSCLC
# DU-145 prostate = tested on: DU-145 prostate
# MALME-3M melanoma = tested on: MALME-3M melanoma
# MDA-N = tested on: MDA-N
# NCI-H522 lung = tested on: NCI-H522 lung
# HOP-92 NSCLC = tested on: HOP-92 NSCLC
# SNB-19 CNS = tested on: SNB-19 CNS
# MCF7 breast = tested on: MCF7 breast
# OVCAR-3 ovarian = tested on: OVCAR-3 ovarian
# SK-OV-3 ovarian = tested on: SK-OV-3 ovarian
# SF-539 CNS = tested on: SF-539 CNS
# ACHN renal = tested on: ACHN renal
# NCI-H23 lung = tested on: NCI-H23 lung
# RPMI-8226 leukemia = tested on: RPMI-8226 leukemia
# HL-60(TB) leukemia = tested on: HL-60(TB) leukemia
# HOP-62 NSCLC = tested on: HOP-62 NSCLC
# SK-MEL-5 melanoma = tested on: SK-MEL-5 melanoma
# OVCAR-8 ovarian = tested on: OVCAR-8 ovarian
# UACC-62 melanoma = tested on: UACC-62 melanoma
# CAKI-1 renal = tested on: CAKI-1 renal
# IGROV1 ovarian = tested on: IGROV1 ovarian
# SNB-75 CNS = tested on: SNB-75 CNS
# HT29 colon = tested on: HT29 colon
# MDA-MB-231 breast = tested on: MDA-MB-231 breast
# NCI-H226 lung = tested on: NCI-H226 lung
# SK-MEL-28 melanoma = tested on: SK-MEL-28 melanoma
# LOX IMVI melanoma = tested on: LOX IMVI melanoma
# SF-295 CNS = tested on: SF-295 CNS
# MOLT-4 leukemia = tested on: MOLT-4 leukemia
# CCRF-CEM leukemia = tested on: CCRF-CEM leukemia
# HS 578T breast = tested on: HS 578T breast
# A549 NSCLC = tested on: A549 NSCLC
# KM12 colon = tested on: KM12 colon
# SR leukemia = tested on: SR leukemia
# RXF 393 renal = tested on: RXF 393 renal
# UO-31 renal = tested on: UO-31 renal
# T-47D breast = tested on: T-47D breast
# OVCAR-5 ovarian = tested on: OVCAR-5 ovarian
# NCI-H460 lung = tested on: NCI-H460 lung
# SW-620 colon = tested on: SW-620 colon
# K-562 leukemia = tested on: K-562 leukemia
# A498 renal = tested on: A498 renal
# SF-268 CNS = tested on: SF-268 CNS
# COLO 205 colon = tested on: COLO 205 colon
# HCT-15 colon = tested on: HCT-15 colon
# PC-3 prostate = tested on: PC-3 prostate
# M14 melanoma = tested on: M14 melanoma
# HCC-2998 colon = tested on: HCC-2998 colon
# HCT-116 colon = tested on: HCT-116 colon
# OVCAR-4 ovarian = tested on: OVCAR-4 ovarian
# BT-549 breast = tested on: BT-549 breast
# U251 CNS = tested on: U251 CNS
# SK-MEL-2 melanoma = tested on: SK-MEL-2 melanoma
# TK-10 renal = tested on: TK-10 renal
# NCI/ADR-RES ovarian = tested on: NCI/ADR-RES ovarian
# UACC-257 melanoma = tested on: UACC-257 melanoma
# MDA-MB-435 = tested on: MDA-MB-435
structure (smiles),measurement,setting,value
C=C1CCC(O)C/C1=C/C=C1\CCCC2(C)C1CCC2C(C)CCCC(C)C (stereo not drawn),TGI,786-0 renal,30.6 µM
same,TGI,SN12C renal,30.8 µM
same,TGI,EKVX NSCLC,35.4 µM
same,TGI,DU-145 prostate,41.3 µM
same,TGI,MALME-3M melanoma,38 µM
same,TGI,MDA-N,34.3 µM
same,TGI,NCI-H522 lung,33 µM
same,TGI,HOP-92 NSCLC,33 µM
same,TGI,SNB-19 CNS,33.2 µM
same,TGI,MCF7 breast,29.3 µM
same,TGI,OVCAR-3 ovarian,35.4 µM
same,TGI,SK-OV-3 ovarian,41.9 µM
same,TGI,SF-539 CNS,36.5 µM
same,TGI,ACHN renal,30.6 µM
same,TGI,NCI-H23 lung,33.7 µM
same,TGI,RPMI-8226 leukemia,64.9 µM
same,TGI,HL-60(TB) leukemia,> 60.2 µM
same,TGI,HOP-62 NSCLC,35.4 µM
same,TGI,SK-MEL-5 melanoma,36.3 µM
same,TGI,OVCAR-8 ovarian,33.2 µM
same,TGI,UACC-62 melanoma,34.9 µM
same,TGI,CAKI-1 renal,35.2 µM
same,TGI,IGROV1 ovarian,31.3 µM
same,TGI,SNB-75 CNS,37.6 µM
same,TGI,HT29 colon,29.9 µM
same,TGI,MDA-MB-231 breast,35.6 µM
same,TGI,NCI-H226 lung,31.3 µM
same,TGI,SK-MEL-28 melanoma,30.4 µM
same,TGI,LOX IMVI melanoma,34.5 µM
same,TGI,SF-295 CNS,35.1 µM
same,TGI,MOLT-4 leukemia,> 61.5 µM
same,TGI,CCRF-CEM leukemia,> 65.4 µM
same,TGI,HS 578T breast,36.4 µM
same,TGI,A549 NSCLC,36.3 µM
same,TGI,KM12 colon,38 µM
same,TGI,SR leukemia,> 63.6 µM
same,TGI,RXF 393 renal,33.4 µM
same,TGI,UO-31 renal,28.3 µM
same,TGI,T-47D breast,38.8 µM
same,TGI,OVCAR-5 ovarian,37.4 µM
same,TGI,NCI-H460 lung,46.7 µM
same,TGI,SW-620 colon,31.8 µM
same,TGI,K-562 leukemia,> 59.2 µM
same,TGI,A498 renal,36.7 µM
same,TGI,SF-268 CNS,46.5 µM
same,TGI,COLO 205 colon,34 µM
same,TGI,HCT-15 colon,35.3 µM
same,TGI,PC-3 prostate,34.3 µM
same,TGI,M14 melanoma,34.8 µM
same,TGI,HCC-2998 colon,38.6 µM
same,TGI,HCT-116 colon,28.5 µM
same,TGI,OVCAR-4 ovarian,35.7 µM
same,TGI,BT-549 breast,37.4 µM
same,TGI,U251 CNS,34.4 µM
same,TGI,SK-MEL-2 melanoma,37.2 µM
same,TGI,TK-10 renal,25.1 µM
same,TGI,NCI/ADR-RES ovarian,34.9 µM
same,TGI,UACC-257 melanoma,32.2 µM
same,TGI,MDA-MB-435,31.3 µM
CCc1nc(N)nc(N)c1-c1ccc2c(c1)nnn2CCc1ccccc1,TGI,786-0 renal,64.4 µM
same,TGI,SN12C renal,> 73.5 µM
same,TGI,EKVX NSCLC,> 75.8 µM
same,TGI,DU-145 prostate,> 65.2 µM
same,TGI,MALME-3M melanoma,49.5 µM
same,TGI,MDA-N,> 68.3 µM
same,TGI,NCI-H522 lung,33.9 µM
same,TGI,HOP-92 NSCLC,> 79.6 µM
same,TGI,SNB-19 CNS,86.4 µM
same,TGI,MCF7 breast,> 70 µM
same,TGI,OVCAR-3 ovarian,> 70.1 µM
same,TGI,SK-OV-3 ovarian,> 75.2 µM
same,TGI,SF-539 CNS,> 68.9 µM
same,TGI,ACHN renal,> 70.1 µM
same,TGI,NCI-H23 lung,> 64.9 µM
same,TGI,RPMI-8226 leukemia,51.8 µM
same,TGI,HL-60(TB) leukemia,35.3 µM
same,TGI,HOP-62 NSCLC,> 69.9 µM
same,TGI,SK-MEL-5 melanoma,32.2 µM
same,TGI,OVCAR-8 ovarian,> 64.9 µM
same,TGI,UACC-62 melanoma,> 65.7 µM
same,TGI,CAKI-1 renal,> 100 µM
same,TGI,IGROV1 ovarian,> 70.3 µM
same,TGI,SNB-75 CNS,64.1 µM
same,TGI,HT29 colon,56.1 µM
same,TGI,MDA-MB-231 breast,> 72.4 µM
same,TGI,NCI-H226 lung,> 71.8 µM
same,TGI,SK-MEL-28 melanoma,> 71.5 µM
same,TGI,LOX IMVI melanoma,> 65 µM
same,TGI,SF-295 CNS,57.1 µM
same,TGI,MOLT-4 leukemia,50.2 µM
same,TGI,CCRF-CEM leukemia,> 69.9 µM
same,TGI,HS 578T breast,> 85 µM
same,TGI,A549 NSCLC,> 100 µM
same,TGI,KM12 colon,> 64.1 µM
same,TGI,SR leukemia,49.5 µM
same,TGI,RXF 393 renal,> 73.8 µM
same,TGI,UO-31 renal,> 60.6 µM
same,TGI,T-47D breast,64.5 µM
same,TGI,OVCAR-5 ovarian,> 82.5 µM
same,TGI,NCI-H460 lung,51.2 µM
same,TGI,SW-620 colon,> 66.5 µM
same,TGI,K-562 leukemia,> 51.1 µM
same,TGI,A498 renal,> 79 µM
same,TGI,SF-268 CNS,> 64.2 µM
same,TGI,COLO 205 colon,42 µM
same,TGI,HCT-15 colon,> 63.2 µM
same,TGI,PC-3 prostate,> 64.7 µM
same,TGI,M14 melanoma,> 65.9 µM
same,TGI,HCC-2998 colon,51.4 µM
same,TGI,HCT-116 colon,> 61.1 µM
same,TGI,OVCAR-4 ovarian,> 100 µM
same,TGI,BT-549 breast,> 69 µM
same,TGI,U251 CNS,> 70.5 µM
same,TGI,SK-MEL-2 melanoma,61.9 µM
same,TGI,TK-10 renal,> 83.7 µM
same,TGI,NCI/ADR-RES ovarian,68.8 µM
same,TGI,UACC-257 melanoma,> 68.8 µM
same,TGI,MDA-MB-435,> 68.7 µM
